Measurements: patent US6544989B2, “Benzazoles: benzoxazole, benzthiazole and benzimidazole derivatives” (Syngenta Limited, priority 1998, dated 2003)
“And” between values parts separate entries of the source, which are not always exact repeats. Equal entries are not always repeated. Where two headings read alike, the source gives them in different places. Marks after values point to notes of the source that are not given here.

What was measured:
[1] = test system: Phytophthora infestans lycopersici; format: in vivo
[2] = test system: Pyricularia oryzae; format: in vivo; conditions: METHOD 2 (unbanded)
[3] = test system: Puccinia recondita; test: Fungicidal test, Puccinia recondita (PUCCRT) on wheat, PRCO; format: in vivo
[4] = test system: Venturia inaequalis; test: Fungicidal test, Venturia inaequalis (VENTIN) on apples, PRCO; format: in vivo; conditions: METHOD 2 (unbanded)
[5] = test system: Botrytis cinerea; test: Fungicidal test, Botrytis cinerea (BOTRCI) on tomatoes, PRCO; format: in vivo; conditions: METHOD 2 (unbanded)
[6] = test system: Erysiphe graminis f.sp. tritici; test: Fungicidal test, Erysiphe graminis f.sp. tritici (ERYSGT) on wheat, PRCO; format: in vivo; conditions: for ERYSGT 6 hr Prot/Foir PRCO: METHOD 1 (values marked *); for ERYSGT 1 d Prot/Foir PRCO: METHOD 2 (unbanded)
[7] = test system: Meloidogyne incognita; test: Nematode test, J2 infective juveniles of Meloidogyne incognita, mortality; conditions: 12.5 ppm; J2 infective juveniles suspended in solution; mortality after three days
[8] = test system: Musca domestica; conditions: 500 ppm by weight; knockdown assessed 15 minutes after treatment
[9] = test system: Septoria nodorum; test: Fungicidal test, Septoria nodorum (LEPTNO) on wheat, PRCO; format: in vivo; conditions: METHOD 2 (unbanded)
[10] = test system: Plasmopara viticola; test: Fungicidal test, Plasmopara viticola (PLASVI) on vines, PRCO; format: in vivo
[11] = test system: Uncinula necator; test: Fungicidal test, Uncinula necator (UNCINE) on vines, PRCO; format: in vivo; conditions: METHOD 2 (unbanded)
[12] = test system: Rhizoctonia solani; test: Fungicidal test, Rhizoctonia solani (RHIZSO) on rice, PRCO; format: in vivo; conditions: METHOD 2 (unbanded)
[13] = test system: Septoria nodorum; test: Synergy test of two-compound mixtures, Septoria nodorum (LEPTNO) on wheat, observed and expected PRCO; format: in vivo
[14] = test system: Plasmopara viticola; test: Synergy test of two-compound mixtures, Plasmopara viticola (PLASVI) on vines, observed and expected PRCO; format: in vivo; conditions: Disease on untreated: 95%
[15] = test system: Rhizoctonia solani; test: Synergy test of two-compound mixtures, Rhizoctonia solani (RHIZSO) on turf, observed and expected PRCO; format: in vivo; conditions: assessed 5 days after treatment

Compound	PYRIOR 1 d Prot/Foir PRCO [2]	VENTIN 1 d Prot/Foir PRCO [4]	BOTRCI 1 d Prot/Foir PRCO [5]	ERYSGT 6 hr Prot/Foir PRCO [6]	MELGIN = Meloidogyne incognita, grading of mortality (score) [7]	MUSCDO AC = Musca domestica (knockdown), score [8]	LEPTNO 1 d Prot/Foir PRCO [9]	PLASVI 1 d Prot/Foir PRCO ([10]; METHOD 2 (unbanded))	PHYTIN 1 d Prot/Foir PRCO ([1]; METHOD 2 (unbanded))	UNCINE 1 d Prot/Foir PRCO [11]	PUCCRT 1 d Prot/Foir PRCO ([3]; METHOD 2 (unbanded))	RHIZSO 1 d Prot/Foir PRCO [12]	other results
Cc1nc2cc(CC(=O)Nc3snc(C)c3Cl)ccc2o1 [2(A3)]	47 and 92	97	0	100*	5 (5 indicates 40-79% mortality)	0 (0 indicates less than 40% mortality)	21	–	–	–	–	–	PHYTIN 1 d Prot/Foir PRCO ([1]; METHOD 1 (values marked *)): 100*; PUCCRT 1 d Prot/Foir PRCO ([3]; METHOD 1 (values marked *)): 100*; PLASVI 1 d Prot/Foir PRCO ([10]; METHOD 1 (values marked *)): 0*
CCCc1nc2cc(CC(=O)Nc3snc(C)c3Cl)ccc2o1 [4(A3)]	90 and 81	–	49	100*	9 (9 indicates 80-100% mortality)	9 (9 indicates 80-100% mortality)	50	34	–	–	–	–	PHYTIN 1 d Prot/Foir PRCO ([1]; METHOD 1 (values marked *)): 100*; PUCCRT 1 d Prot/Foir PRCO ([3]; METHOD 1 (values marked *)): 100*
Cc1nsc(NC(=O)Cc2ccc3oc(C(C)(C)C)nc3c2)c1Cl [9(A3)]	100	33	3	100*	0 (0 indicates less than 40% mortality)	9 (9 indicates 80-100% mortality)	55	–	100	100	100	29	PLASVI 1 d Prot/Foir PRCO ([10]; METHOD 1 (values marked *)): 100*
Cc1nsc(NC(=O)Cc2ccc3oc(CCc4ccccc4)nc3c2)c1Cl [247(A3)]	85	−11	–	–	0 (0 indicates less than 40% mortality)	0 (0 indicates less than 40% mortality)	13	62	97	95	95	0	ERYSGT 1 d Prot/Foir PRCO [6]: 61
Cc1nsc(NC(=O)Cc2ccc3oc(-c4cc(Cl)cc(Cl)c4)nc3c2)c1Cl [261(A3)]	31	0	–	–	0 (0 indicates less than 40% mortality)	0 (0 indicates less than 40% mortality)	−7	25	0	17	3	0	ERYSGT 1 d Prot/Foir PRCO [6]: 19
CO/C=C(/C(=O)OC)c1ccccc1Oc1cc(Oc2ccccc2C#N)ncn1 [azoxystrobin, reference compound]	–	–	–	–	–	–	–	–	–	–	–	–	% disease control Observed ([13]; Test 1 (Disease on untreated: 52%), azoxystrobin 0.1 mg/l alone): 41%; % disease control Observed ([13]; Test 1 (Disease on untreated: 52%), azoxystrobin 0.25 mg/l alone): 37%; % disease control Observed ([13]; Test 2 (Disease on untreated: 64%), azoxystrobin 0.1 mg/l alone): 48%; % disease control Observed ([13]; Test 2 (Disease on untreated: 64%), azoxystrobin 0.25 mg/l alone): 71%; % disease control Observed ([14]; azoxystrobin 0.2 mg/l alone): 61%; % disease control Observed ([15]; Test 1, azoxystrobin 0.1 mg/l alone): 38.25%; % disease control Observed ([15]; Test 1, azoxystrobin 0.3 mg/l alone): 71.25%; % disease control Observed ([15]; Test 2, azoxystrobin 0.1 mg/l alone): 19.7%
CSC1=N[C@@](C)(c2ccccc2)C(=O)N1Nc1ccccc1 [fenamidone]	–	–	–	–	–	–	–	–	–	–	–	–	% disease control Observed ([14]; fenamidone 0.2 mg/l alone): 65%
O=[N+]([O-])c1cc(C(F)(F)F)c(Cl)c([N+](=O)[O-])c1Nc1ncc(C(F)(F)F)cc1Cl [fluazinam]	–	–	–	–	–	–	–	–	–	–	–	–	% disease control Observed ([14]; fluazinam 1 mg/l alone): 4%; % disease control Observed ([15]; Test 1, fluazinam 3 mg/l alone): 15%; % disease control Observed ([15]; Test 1, fluazinam 10 mg/l alone): 48.75%; % disease control Observed ([15]; Test 2, fluazinam 10 mg/l alone): 18.4%
